Laboratory results published in ChEMBL document CHEMBL4808216, “Gut-Restricted Selective Cyclooxygenase-2 (COX-2) Inhibitors for Chemoprevention of Colorectal Cancer” (J Med Chem, 2021).
pIC50: −log10 of the molar value. Values after ≈ are worked out from the molar mass of the structure shown. Active and inactive are the calls of the source. No cut-off for these calls is given here.

Legend:
[1] = Ratio of drug concentration in C57BL/6J mouse colon to plasma at 10 mg/kg, po measured after 4 hr by liquid chromatographic triple-quadrupole mass spectrometric method; format: ADME, organism-based; conditions: C57BL/6J, colon / plasma
Mus musculus [2] = assay: Chemo-protective activity in C57BL/6J mouse model of spontaneous GI-tract tumor Apc-min assessed as 18F-FDG uptake in ileum at 300 mg/kg, po incorporated into chow diet administered daily for 2 weeks and measured after 14 days by ex vivo PET imaging analysis relative to control; format: functional
[3] = Volume of distribution at steady state in C57BL/6J mouse at 2 mg/kg, iv measured after 0.08 to 24 hrs; format: ADME, organism-based; conditions: C57BL/6J, in vivo, time 0.08-24 hrs, read-out: Vdss
[4] = Equilibrium solubility of compound in FASSIF at pH 6.5; format: physicochemical
[5] = Half life in mouse liver microsomes; format: ADME, Microsome
[6] = molecular target: Prostaglandin G/H synthase 1 (Homo sapiens, UniProt P23219); assay: Inhibition of COX1 (unknown origin) expressed in HEK293 TRex cells assessed as reduction in PGE2 production using arachidonic acid as substrate preincubated for 60 mins followed by substrate addition for 1 hr in presence of 10% FBS by RapidFire High-Throughput Mass Spectrometry; format: ADME, cell-based, HEK293-T-REx
[7] = Protein binding in human plasma assessed as unbound fraction; format: ADME, cell-free
[8] = Half life in mouse hepatocytes; format: ADME, cell-based, Hepatocyte
Mus musculus [9] = assay: Chemo-protective activity in po dosed C57BL/6J mouse model of spontaneous GI-tract tumor Apc-min assessed as reduction in 18F-FDG uptake in ileum incorporated into chow diet administered daily for 2 weeks and measured after 14 days by ex vivo PET imaging analysis; format: functional, organism-based
[10] = molecular target: T1, Prostaglandin G/H synthase 2 (Mus musculus, UniProt Q05769); assay: In vivo inhibition of COX2 in po dosed C57BL/6J mouse model of spontaneous GI-tract tumor Apc-min assessed as chemopreventive effect by measuring reduction in polyp area and relevant plasma exposures; format: functional, organism-based
T1 sequence (Q05769 whole entry): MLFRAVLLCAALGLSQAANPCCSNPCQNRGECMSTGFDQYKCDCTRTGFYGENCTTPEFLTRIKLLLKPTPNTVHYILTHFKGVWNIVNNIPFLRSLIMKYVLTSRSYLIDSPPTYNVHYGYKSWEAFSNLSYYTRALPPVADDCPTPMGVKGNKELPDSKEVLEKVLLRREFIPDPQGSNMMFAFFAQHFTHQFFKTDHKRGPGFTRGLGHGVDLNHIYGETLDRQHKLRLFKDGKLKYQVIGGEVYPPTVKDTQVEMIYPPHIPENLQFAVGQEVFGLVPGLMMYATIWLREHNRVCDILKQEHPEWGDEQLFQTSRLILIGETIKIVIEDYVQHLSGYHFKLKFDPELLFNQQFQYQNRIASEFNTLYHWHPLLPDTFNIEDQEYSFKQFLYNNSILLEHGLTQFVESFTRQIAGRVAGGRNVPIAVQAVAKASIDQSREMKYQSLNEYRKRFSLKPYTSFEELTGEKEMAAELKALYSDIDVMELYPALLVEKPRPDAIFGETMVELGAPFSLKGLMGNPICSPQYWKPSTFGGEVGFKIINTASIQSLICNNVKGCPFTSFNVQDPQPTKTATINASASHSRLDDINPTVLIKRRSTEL

Mus musculus [11] = assay: Antitumor activity in C57BL/6J mouse model of spontaneous GI-tract tumor Apc-min assessed as reduction in total ileum polyp number at 30 to 300 mg/kg, po administered as suspension for 10 weeks; format: functional, organism-based; conditions: dose 30-300 mg/kg

Prostaglandin G/H synthase 1, sequence (P23219 whole entry): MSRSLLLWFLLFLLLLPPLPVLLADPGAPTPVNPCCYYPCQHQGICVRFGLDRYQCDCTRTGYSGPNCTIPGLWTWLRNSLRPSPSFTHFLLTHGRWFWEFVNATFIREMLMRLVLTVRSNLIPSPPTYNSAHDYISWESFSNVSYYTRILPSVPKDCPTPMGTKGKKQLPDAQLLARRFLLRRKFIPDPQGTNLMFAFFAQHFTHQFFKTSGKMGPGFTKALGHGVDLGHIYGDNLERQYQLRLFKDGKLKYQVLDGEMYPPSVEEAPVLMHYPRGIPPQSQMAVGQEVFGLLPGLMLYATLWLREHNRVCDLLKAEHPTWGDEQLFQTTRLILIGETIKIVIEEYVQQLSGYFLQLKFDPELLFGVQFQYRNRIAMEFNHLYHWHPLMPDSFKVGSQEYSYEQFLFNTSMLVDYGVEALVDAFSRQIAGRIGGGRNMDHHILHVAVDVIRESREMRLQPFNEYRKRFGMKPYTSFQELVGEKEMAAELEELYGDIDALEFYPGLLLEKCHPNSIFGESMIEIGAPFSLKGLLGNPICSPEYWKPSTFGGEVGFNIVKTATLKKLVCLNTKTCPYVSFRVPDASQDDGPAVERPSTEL

**Q.** What does the source list for `CCCOc1nc(OCC(C)(C)O)c(-c2ccc(S(C)(=O)=O)cc2)cc1CO`?
**A.** Kp at 4 h [1]: 1280; Activity (Mus musculus [2]): 35.6%; Vd [3]: 3.05 L/kg; solubility thermodynamic [4]: 25 µM (≈ 10.2 µg/mL); half-life [5]: 19.6 min; pIC50 [6]: < 4.30; fraction unbound [7]: 0.016; half-life [8]: 3 min; Activity (Mus musculus [9]): Active; pIC50 [10]: 7.46; Activity (Mus musculus [11]): Active
